Patent US11648258B2, “Method and compounds for inhibiting the MCM complex and their application in cancer treatment” (priority 2012, dated 2023)

How the values were obtained:
[1] = tested on: cancer cell lines (HepG2, Hep3B, HeLa, HK1, C666-1); experiment: cells; type: cell-based, human; settings: for IC50: Homo sapiens, 48 hrs treatment, WST-1, average over cancer cell lines
Description: For testing the anti-proliferation activity of the compounds in human cell lines and calculation of IC50, cancer cells including HepG2, HeLa and Hep3B (4×10^5 cells/well) and normal L-02 cells (5×10^5 cells/well) were respectively seeded in 96-well plates in 100 μl of culture medium and incubated for about 12 hrs at 37° C. The cells were treated with two-fold serial dilutions of the drugs for 48 hrs. Medium was removed and 100 μl of culture medium containing 1 μM WST-1 (water soluble tetrazolium-1) were added to each well. The cells were incubated for 2 hrs, and absorbance at 405 nm (reference at 630 nm) was then measured. To construct the standard curve of the relationship between cell number and absorbance at OD405, serial dilutions of cells with known cell numbers were seeded and incubated for six hrs before being measured by the WST-1 assay. The cell viability was expressed as the ratio of the number of live cells treated with a candidate compound versus that of the DMSO-treated cells.
To further test 17beta-Deacetyltanghinin and to determine the IC50 values, besides L-02 and HepG2, Hep3B (another liver cancer cell line which is p53-negative), HeLa (cervical cancer cell line), HK1 and C666-1 (nasopharyngeal carcinoma) cells and a hTert-immortalized normal nasopharyngeal cell line (NP460) were treated by 17beta-Deacetyltanghinin for 48 hrs, and the relative cell vabilities were determined by WST-1 assay (FIG. 2B, C).

[2] = target: T1, hMcm2-hMcm6 interaction (MCM complex) (Homo sapiens, UniProt P49736+Q14566); experiment: Co-immunoprecipitation of MCM subunits in HeLa cell extracts; type: cell-based; settings: asynchronous HeLa cells, whole cell extracts
T1 construct: endogenous in cells; host or cells: HeLa
T1 sequence (P49736 2-904 limits assumed): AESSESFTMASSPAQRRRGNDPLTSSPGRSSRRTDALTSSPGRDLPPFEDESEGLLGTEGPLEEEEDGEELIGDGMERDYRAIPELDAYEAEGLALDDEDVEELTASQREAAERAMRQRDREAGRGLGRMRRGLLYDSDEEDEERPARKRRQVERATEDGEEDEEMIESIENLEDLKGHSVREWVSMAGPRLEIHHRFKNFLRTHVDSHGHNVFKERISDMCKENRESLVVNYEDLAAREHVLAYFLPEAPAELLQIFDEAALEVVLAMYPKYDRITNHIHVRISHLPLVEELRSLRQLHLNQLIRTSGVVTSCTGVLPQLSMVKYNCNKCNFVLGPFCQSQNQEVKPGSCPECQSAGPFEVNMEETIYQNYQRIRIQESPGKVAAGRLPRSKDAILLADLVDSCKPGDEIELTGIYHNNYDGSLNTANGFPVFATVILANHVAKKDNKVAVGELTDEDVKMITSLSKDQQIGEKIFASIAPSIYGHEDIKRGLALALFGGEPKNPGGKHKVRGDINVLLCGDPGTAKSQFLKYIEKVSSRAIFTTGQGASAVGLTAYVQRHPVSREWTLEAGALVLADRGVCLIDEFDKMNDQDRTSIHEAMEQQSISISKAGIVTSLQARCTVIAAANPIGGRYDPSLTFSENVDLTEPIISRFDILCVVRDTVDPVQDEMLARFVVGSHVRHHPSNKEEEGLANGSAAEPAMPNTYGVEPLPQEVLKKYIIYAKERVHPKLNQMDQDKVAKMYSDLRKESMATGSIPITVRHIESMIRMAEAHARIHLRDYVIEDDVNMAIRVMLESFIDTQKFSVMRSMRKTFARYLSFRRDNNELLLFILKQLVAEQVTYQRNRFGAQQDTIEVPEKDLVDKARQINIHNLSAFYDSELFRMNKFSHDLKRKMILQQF
T1 sequence (Q14566 whole entry): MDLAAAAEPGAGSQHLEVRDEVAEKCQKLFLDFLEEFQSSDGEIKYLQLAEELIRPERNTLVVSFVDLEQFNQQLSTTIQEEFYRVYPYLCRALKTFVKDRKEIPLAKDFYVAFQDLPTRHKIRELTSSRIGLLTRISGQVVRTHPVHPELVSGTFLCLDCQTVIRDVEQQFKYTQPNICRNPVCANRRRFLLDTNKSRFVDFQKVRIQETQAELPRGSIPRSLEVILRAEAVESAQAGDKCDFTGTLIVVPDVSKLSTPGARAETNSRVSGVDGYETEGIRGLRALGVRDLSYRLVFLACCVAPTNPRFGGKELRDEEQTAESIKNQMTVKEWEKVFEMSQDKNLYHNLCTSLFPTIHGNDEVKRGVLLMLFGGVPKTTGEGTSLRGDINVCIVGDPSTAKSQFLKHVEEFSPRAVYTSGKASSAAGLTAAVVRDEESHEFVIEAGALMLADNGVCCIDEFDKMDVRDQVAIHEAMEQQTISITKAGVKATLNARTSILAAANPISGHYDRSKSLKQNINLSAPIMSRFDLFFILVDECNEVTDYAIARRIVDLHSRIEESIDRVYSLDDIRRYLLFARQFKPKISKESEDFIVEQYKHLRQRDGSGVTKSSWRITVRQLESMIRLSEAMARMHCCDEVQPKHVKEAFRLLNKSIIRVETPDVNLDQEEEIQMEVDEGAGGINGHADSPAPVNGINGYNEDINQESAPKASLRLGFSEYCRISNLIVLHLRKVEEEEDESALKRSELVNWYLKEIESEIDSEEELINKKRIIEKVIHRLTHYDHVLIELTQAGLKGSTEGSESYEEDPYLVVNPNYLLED
Description: To test if 17beta-Deacetyltanghinin targets hMcm2 and hMcm6 proteins in human cells, possible co-immunoprecipitation (co-IP) of the two proteins was tested in human cell extracts from cells treated with 17beta-Deacetyltanghinin. In FIG. 3, asynchronous HeLa cells were treated with DMSO or 17beta-Deacetyltanghinin (DAT) (FIG. 3A), or with DMSO, 17beta-Neriifolin (NRF) or 17beta-Deacetyltanghinin diol (Diol) (FIG. 3B), and whole cell extracts were prepared and further incubated with the compound before being used for co-IP in the presence of the compound. The immunoprecipitates were then immunoblotted with anti-hMcm 6, anti-hMcm2, anti-hMcm4 and anti-hMcm7 antibodies.

HeLa cells = experiment: BrdU incorporation assay (DNA replication) in HeLa cells; type: cell-based, human
Description: Hela cells grown on cover slips coated with poly-D-lysine were incubated with 50 μM BrdU (Sigma) for 1 hr at 37° C. after 24 hrs of 17beta-Deacetyltanghinin treatment. Cells were then fixed in with 4% of PFA in PBS at room temperature for 20 min, permeabilized with 0.1% Triton X-100 and 1% BSA in PBS for 20 min, and then incubated sequentially with anti-BrdU (Sigma Chemical Company; 1:500) and anti-mouse IgG-FITC conjugates (Sigma Chemical Company; 1:500), each for 1 hr at 37° C., with three washes in PBS after each antibody incubation. BrdU signal was observed under the fluorescence microscope (Nikon TE2000E).
As 17beta-Deacetyltanghinin disrupts the interactions between hMcm2 and hMcm6 and inhibits the association of MCM proteins with chromatin, 17beta-Deacetyltanghinin should block DNA replication. To confirm this, we treated HeLa cells with 17beta-Deacetyltanghinin for 24 hrs and then labeled them with BrdU for 1 hr. Incorporated BrdU in the cellular DNA was detected by an anti-BrdU antibody followed by FITC-anti-mouse secondary antibodies which was visualized under the fluorescence microscope (FIG. 6A). DAPI was used to stain the nuclei (FIG. 6A), and the percentage of BrdU positive cells was quantified (FIG. 6B). […]

[3] = tested on: HeLa cells xenograft tumors; experiment: In vivo anticancer activity, nude mice xenograft model; settings: for suppression of tumor growth: days 1-3 and 6-10, HeLa xenograft
Description: In vivo anticancer activity tests were carried out in the nude mice xenograft model by inoculating nude mice with HeLa cells in both the left and right flanks. After random grouping, nude mice were treated intraperitoneally with 17beta-Deacetyltanghinin or the solvent (30% of propylene glycol in PBS). In the first test, 3 days after tumor inoculation when small tumors started to form, two groups of nude mice were treated on days 1-3 and 6-10 with 3.5 and 7.0 mg-drug/kg-body weight of 17beta-Deacetyltanghinin respectively, and another group of control mice were treated with the same volume of the solvent (FIG. 10A). In FIG. 10A, the tumor volume data represented by the small-size data point symbol linked with thin lines were obtained on the days when both measurement of tumor size and drug injections were performed, and the tumor volume data represented by the large-size data point symbol linked with thick lines were obtained on the days without drug injection. Each tumor size was average of ten tumors in five mice in each group.
(§1) A further set of animal experiments was then conducted with a longer period of time, in which fifteen drug injections at 5.0 mg/kg were performed one week after tumor inoculation when the tumor size reached 0.05-0.1 cm^3. In FIG. 10B, drug injections and tumor size measurements were performed on the days represented by the data points, and the photographs in FIG. 10C were taken on day 20.

[4] = In vivo toxicity assessment in nude mice; settings: 5.0 mg/kg intraperitoneal for 20 days
Description: as §1
In FIG. 11, S refers to solvent-treated mice without tumor inoculation; S+T represents solvent-treated mice with tumor inoculation; DAT refers to 17beta-Deacetyltanghinin-treated mice without tumor inoculation; DAT+T represents 17beta-Deacetyltanghinin-treated mice with tumor inoculation; and P+T refers to Paelitaxel-treated mice with tumor inoculation. Three out of the five mice with intermediate tumor size in each group were selected for physiological parameters examination. The tumors (T) and internal organs including liver (L), heart (H) and kidney (K) were dissected from each mouse.
Furthermore, blood from each mouse was also collected for the tests of the ALT (alanine aminotransferase) and LDH (Lactate dehydrogenase) activities. […] The results of both tests were represented as the values of differently treated mice relative to the untreated ones.

## COC1C(O)[C@H](O[C@H]2CC[C@]3(C)C4CC[C@]5(C)[C@@H](C6=CC(=O)OC6)CC[C@]5(O)[C@@]45O[C@H]5C[C@@H]3C2)OC(C)[C@@H]1O (stereo partly drawn) [17beta-Deacetyltanghinin, 3β-O-(3-O-methyl-6-deoxy-α-L-glucopyranosyl)-7β,8β-epoxy-14β-hydroxy-card-20(22)-enolide]
[1]
  IC50: ~0.1 µg/mL
[1]; printed in brackets
  IC50: ~200 nM
[1]; WST-1 assay, 48 hrs
  anti-proliferative (anticancer) activity, in words: significantly inhibited
[2]
  disruption of hMcm2-hMcm6 interaction (co-IP): disrupted the interaction between hMcm2 and hMcm6
HeLa cells; HeLa cells arrested with Mimosine, 12 hrs pre-treatment, released in presence of compound, controls ~100%
  BrdU positive cells: ~40%
HeLa cells; asynchronous HeLa cells, 24 hrs, above 0.2 ∝g/ml
  BrdU signal (DNA replication): almost no BrdU signal
[3]; 3.5 mg/kg intraperitoneally
  suppression of tumor growth: 70%
[3]; 7.0 mg/kg intraperitoneally
  suppression of tumor growth: 90%
[3]; fifteen injections at 5.0 mg/kg, started one week after inoculation
  tumors smaller than in solvent-treated control mice: over 80%
[4]
  appearance of organs (liver, heart, kidney): All organs looked normal
  body weight loss: no obvious weight loss
  organ weights relative to body weights: not significantly changed
[4]; relative to untreated mice
  blood ALT (printed ATL) or LDH level: did not induce significant increase
